# Assay results taken from PubChem BioAssay AID1195 (EPA DSSTox, 2008).
# System: human maximum recommended daily dose, FDA database
# Test: DSSTox (FDAMDD) FDA Maximum (Recommended) Daily Dose Database
# Conditions: stronger effect = lower value
# How it was run: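 MRDD values come from clinical trials with daily oral dosing, usually for 3–12 months, for the average adult, in mg/day converted to mg/kg-bw/day assuming 60 kg. Antineoplastic mg/m2 doses are divided by 37. Activity score maps log10(1/MRDD mmol) onto 1–100.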
# [1] = TherapeuticCategory: antibacterial
# [2] = TherapeuticCategory: antidiabetic
# [3] = TherapeuticCategory: anxiolytic
# [4] = TherapeuticCategory: diagnostic aid
# [5] = TherapeuticCategory: antihistaminic
# [6] = TherapeuticCategory: antipsychotic
compound,measurement,setting,value
CC[C@H](C)C(=O)O[C@H]1C[C@@H](C)C=C2C=C[C@H](C)[C@H](CC[C@@H]3C[C@@H](O)CC(=O)O3)[C@H]21,maximum recommended daily dose (mmol/kg-bw/day),TherapeuticCategory: antihypercholesterolemic,0.00329
CCOC(=O)[C@H](CCc1ccccc1)N[C@@H](C)C(=O)N1[C@H](C(=O)O)C[C@@H]2CCC[C@@H]21,maximum recommended daily dose (mmol/kg-bw/day),TherapeuticCategory: antihypertensive,0.000799
CCn1cc(C(=O)O)c(=O)c2cnc(N3CCNCC3)nc21,maximum recommended daily dose (mmol/kg-bw/day),[1],0.0438
NC[C@@H]1O[C@H](O[C@H]2[C@@H](O)[C@H](O[C@@H]3[C@@H](O)[C@H](N)C[C@H](N)[C@H]3O[C@H]3O[C@H](CO)[C@@H](O)[C@H](O)[C@H]3N)O[C@@H]2CO)[C@H](N)[C@@H](O)[C@@H]1O,maximum recommended daily dose (mmol/kg-bw/day),"TherapeuticCategory: antibacterial, antiamebic",0.0569
CC[N+](CC)(CC)CCC(O)(c1ccccc1)C1CCCCC1 (stereo unspecified),maximum recommended daily dose (mmol/kg-bw/day),TherapeuticCategory: anticholinergic,0.00941
N=C(N)c1ccc(OCCCCCOc2ccc(C(=N)N)cc2)cc1,maximum recommended daily dose (mmol/kg-bw/day),TherapeuticCategory: antiprotozoal,0.0118
C[C@]12CC[C@@H]3c4ccc(OC(=O)Cc5ccc(N(CCCl)CCCl)cc5)cc4CC[C@H]3[C@@H]1CC[C@@H]2OC(=O)Cc1ccc(N(CCCl)CCCl)cc1,maximum recommended daily dose (mmol/kg-bw/day),TherapeuticCategory: estrogen,0.0211
O=C(OCC(COC(=O)c1cccnc1)(COC(=O)c1cccnc1)COC(=O)c1cccnc1)c1cccnc1,maximum recommended daily dose (mmol/kg-bw/day),TherapeuticCategory: antihyperlipoproteinemic,0.00719
COc1cc2c(cc1OC)C(Cc1cc(OC)c(OC)c(OC)c1)[N+](C)(CCCOC(=O)CC/C=C/CCC(=O)OCCC[N+]1(C)CCc3cc(OC)c(OC)cc3C1Cc1cc(OC)c(OC)c(OC)c1)CC2 (stereo unspecified),maximum recommended daily dose (mmol/kg-bw/day),"TherapeuticCategory: skeletal muscle relaxant, neuromuscular blocker",0.000227
NC(N)=NCCCC(N)C(=O)O (stereo unspecified),maximum recommended daily dose (mmol/kg-bw/day),"TherapeuticCategory: ammonia detoxicant, diagnostic aid",2.87
Cc1cc(C(=O)NCCc2ccc(S(=O)(=O)NC(=O)NN3CCCCCC3)cc2)no1,maximum recommended daily dose (mmol/kg-bw/day),[2],0.000594
C[C@H]1[C@H](NC(=O)/C(=N\OC(C)(C)C(=O)O)c2csc(N)n2)C(=O)N1S(=O)(=O)O,maximum recommended daily dose (mmol/kg-bw/day),[1],0.305
CC(=O)O[C@H]1C(=O)[C@@]2(C)[C@H]([C@H](OC(=O)c3ccccc3)[C@]3(O)C[C@H](OC(=O)[C@H](O)[C@@H](NC(=O)c4ccccc4)c4ccccc4)C(C)=C1C3(C)C)[C@]1(OC(C)=O)CO[C@@H]1C[C@@H]2O,maximum recommended daily dose (mmol/kg-bw/day),TherapeuticCategory: antineoplastic,0.00554
C[N+](C)(C)CCOC(N)=O,maximum recommended daily dose (mmol/kg-bw/day),"TherapeuticCategory: cholinergic, miotic",0.000365
C[C@@H](Cc1ccccc1)N(C)Cc1ccccc1,maximum recommended daily dose (mmol/kg-bw/day),TherapeuticCategory: anorexic,0.0104
C#CCN1C(=O)CN=C(c2ccccc2)c2cc(Cl)ccc21,maximum recommended daily dose (mmol/kg-bw/day),[3],0.00108
C[C@@](Cc1ccc(O)c(O)c1)(NN)C(=O)O,maximum recommended daily dose (mmol/kg-bw/day),TherapeuticCategory: antiparkinsonian,0.00368
OC[C@H]1O[C@@H](O[C@H]2[C@H](O)[C@@H](O)[C@H](O)O[C@@H]2CO)[C@H](O)[C@@H](O)[C@H]1O,maximum recommended daily dose (mmol/kg-bw/day),TherapeuticCategory: none,0.292
C/C=C(/CC[C@@H](C)[C@H]1CC[C@H]2C3=CC[C@H]4[C@H](C)[C@@H](O)CC[C@]4(C)[C@H]3CC[C@]12C)C(C)C,maximum recommended daily dose (mmol/kg-bw/day),TherapeuticCategory: anticholinesteremic,0.234
CCOC(=O)C1(c2ccccc2)CCN(C)CC1,maximum recommended daily dose (mmol/kg-bw/day),TherapeuticCategory: narcotic analgesic,0.0606
C[C@H]1C[C@H]2[C@@H]3CCC4=CC(=O)C=C[C@]4(C)[C@@]3(F)[C@@H](O)C[C@]2(C)[C@@]1(OC(=O)c1ccccc1)C(=O)CO,maximum recommended daily dose (mmol/kg-bw/day),TherapeuticCategory: glucocorticoid,0.000302
CC(=O)NCc1c(I)c(NC(C)=O)c(I)c(C(=O)O)c1I,maximum recommended daily dose (mmol/kg-bw/day),[4],0.159
C=CCC1(C(C)CCC)C(=O)N=C(O)NC1=O (stereo unspecified),maximum recommended daily dose (mmol/kg-bw/day),"TherapeuticCategory: sedative, hypnotic",0.0128
CN(C)CCOc1ccccc1Cc1ccccc1,maximum recommended daily dose (mmol/kg-bw/day),[5],0.013
COC(=O)C(c1ccccc1)C1CCCCN1 (stereo unspecified),maximum recommended daily dose (mmol/kg-bw/day),TherapeuticCategory: CNS stimulant,0.00429
CCC1(c2ccc(N)cc2)CCC(=O)NC1=O (stereo unspecified),maximum recommended daily dose (mmol/kg-bw/day),TherapeuticCategory: anticonvulsant,0.0719
O=C(O)CN(CCN(CC(=O)O)CC(=O)O)CC(=O)O,maximum recommended daily dose (mmol/kg-bw/day),TherapeuticCategory: pharmaceutic aid,0.24
CCOC(=O)C1(c2ccccc2)CCCN(C)CC1 (stereo unspecified),maximum recommended daily dose (mmol/kg-bw/day),TherapeuticCategory: analgesic,0.0383
Cc1ccc(S(=O)(=O)NC(=O)NN2CC3CCCC3C2)cc1 (stereo unspecified),maximum recommended daily dose (mmol/kg-bw/day),[2],0.0165
Cc1cccc(CN2CCN(C(c3ccccc3)c3ccc(Cl)cc3)CC2)c1 (stereo unspecified),maximum recommended daily dose (mmol/kg-bw/day),TherapeuticCategory: antiemetic,0.00427
O=C(CCCN1CCC(O)(c2cccc(C(F)(F)F)c2)CC1)c1ccc(F)cc1,maximum recommended daily dose (mmol/kg-bw/day),[6],0.000325
Cc1cc(-c2ccc(N=Nc3ccc4c(S(=O)(=O)O)cc(S(=O)(=O)O)c(N)c4c3O)c(C)c2)ccc1N=Nc1ccc2c(S(=O)(=O)O)cc(S(=O)(=O)O)c(N)c2c1O,maximum recommended daily dose (mmol/kg-bw/day),[4],0.000347
CN(C)CC[C@@H](c1ccc(Br)cc1)c1ccccn1,maximum recommended daily dose (mmol/kg-bw/day),[5],0.00251
O=C(O)C(Cl)Cl,maximum recommended daily dose (mmol/kg-bw/day),"TherapeuticCategory: caustic, keratolytic, topical astringent",0.517
Cc1cc2c(s1)Nc1ccccc1N=C2N1CCN(C)CC1,maximum recommended daily dose (mmol/kg-bw/day),[6],0.0008
Cc1nnc2n1-c1ccc(Cl)cc1C(c1ccccc1)=NC2,maximum recommended daily dose (mmol/kg-bw/day),[3],0.000541
